What was measured:
[1] = tested on: competition with testosterone at the target tissue; test: study in castrate rats receiving testosterone propionate: prostatic weight; assay type: in vivo, male Sprague-Dawley rats (castrated); details: estryne 12mg/kg i.p. and testosterone propionate 0.3mg daily for seven days; castrated 10 days prior
Procedure: To determine if the estryne competes with testosterone at the target tissue rats were orchiectomized under ether anesthesia via the scrotal route 10 days prior to treatment. Testosterone propionate 0.3 mg (0.2 ml sesame oil) was administered daily for 7 days subcutaneously. Estryne 12 mg/kg (0.2 ml propylene glycol) was given daily for 7 days interperitioneally. Control groups received either testosterone propionate (0.3 mg) or carrier oil daily for 7 days. The animals were sacrificed on the eighth day and the organs were weighed.
Animals castrated 10 days prior to treatment received both estryne (12mg/kg weight) and testosterone propionate (0.3mg) daily for seven days.

[2] = tested on: androgen biosynthesis stimulated by human chorionic gonadotropin; test: study in hypophysectomized rats stimulated with human chorionic gonadotropin: ventral prostate weight; assay type: in vivo, hypophysectomized male Sprague-Dawley rats
Procedure: In order to assess the action of the estryne in the presence of exogenous stimulation of androgen synthesis, hypophysectomized male rats received estryne 3.0 mg (0.2 ml sesame oil) sc and/or human chorionic gonadotropin 2 units and 4 units (0.9% saline) sc daily for 7 days. Sacrifice and weighing of the organs was performed on the eighth day.
The wet weight of the ventral prostate was decreased (20-25%) in hypophysectomized animal receiving estryne (12mg/kg body weight) and HGG (2 units) as compared to controls receiving just HGG (2 units).

[3] = tested on: immature uterus; test: study of estrogenic activity (uterine weight of immature mice); details: 100 μg total dose over three days, sc
Procedure: The animals were housed in a temperature controlled room under a constant lighting schedule and maintained on a diet of Charles River Rat Formula and water ad libitum. The diet of the hypophy-sectomized animals was supplemented with organges.
On the fourth day the uteri were removed and weighed.
Thus, immature female mice received estryne at doses up to a maximum of 100 μg total dose over three days, and the wet weight of the uteri were determined.

C[C@]12CC[C@@H]3C(=O)CCC(=O)CC#CC[C@H]3[C@@H]1CCC2=O [Compound 1, 5,10-secoestr-5-yne-3,10,17-trione]
depression of prostatic weight [1]: No significant depression of prostatic weight
decrease in wet weight of the ventral prostate ([2]; estryne 12mg/kg body weight and HCG 2 units, vs controls receiving HCG 2 units only, 7 days): 20-25%
effect on ventral prostate weight at higher doses of HCG ([2]; higher doses of HCG, in words): less pronounced
stimulation of the immature uterus [3]: no stimulation of the immature uterus

From patent publication US4087461A, “Anti-androgenic steroids” (The Johns Hopkins University, priority 1977, dated 1978)
